The target of the assay is Carbonic anhydrase 2 (Bos taurus, UniProt P00921). Nature of the assay: SPR biosensor assay Biacore T100. Conditions: 25 °C; for kon: pH 7.4, read-out: kon (M-1-s-1); for Kd: pH 7.4. An excerpt: SPR biosensor assay Biacore T100
(In general: SPR reads the build-up and loss of mass on a sensor chip optically.)

Drawing on BindingDB's records for doi:10.7270/Q2BC3WXH (University of Dundee, 2010), this text covers kon, Kd and koff for 11 compounds.

Structures are written as SMILES.

Carbonic anhydrase 2, sequence (P00921 whole entry): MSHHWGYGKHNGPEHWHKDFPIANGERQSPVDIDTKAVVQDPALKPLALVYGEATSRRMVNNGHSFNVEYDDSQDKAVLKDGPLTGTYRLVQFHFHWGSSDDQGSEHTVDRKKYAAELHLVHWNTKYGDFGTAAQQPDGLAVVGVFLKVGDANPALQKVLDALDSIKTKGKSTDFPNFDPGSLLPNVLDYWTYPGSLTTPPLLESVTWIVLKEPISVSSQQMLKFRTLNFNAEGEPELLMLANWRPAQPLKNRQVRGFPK

In the case of `NS(=O)(=O)c1ccc(F)cc1F` [2,4-difluorobenzene-1-sulfonamide], the kon (as a rule, the second-order rate constant of association) came to 107000 M⁻¹ s⁻¹ and binding was characterised by a dissociation constant (Kd) of 0.394 µM.
The corresponding values for `NS(=O)(=O)c1cc(Cl)cc(Cl)c1` [3,5-dichlorobenzene-1-sulfonamide] are 259000 M⁻¹ s⁻¹ and 0.287 µM.
As for `Nc1ccc(S(N)(=O)=O)cn1` [6-aminopyridine-3-sulfonamide], the kon amounted to 203000 M⁻¹ s⁻¹ and the affinity, expressed as Kd, was 10.8 µM.
In the same order, the values of `NS(=O)(=O)c1ccc2c(c1)CCN2` [2,3-dihydro-1H-indole-5-sulfonamide] are 58500 M⁻¹ s⁻¹ and 3.11 µM.
In the same order, the values of `CCCn1c(=O)[nH]c2cc(S(N)(=O)=O)ccc21` [2-oxo-1-propyl-2,3-dihydro-1H-1,3-benzodiazole-5-sulfonamide] are 93500 M⁻¹ s⁻¹ and 0.197 µM.
In the same order, the values of `Cc1c(Cl)cc(F)cc1S(N)(=O)=O` [3-chloro-5-fluoro-2-methylbenzene-1-sulfonamide] are 76300 M⁻¹ s⁻¹ and 0.0968 µM.
On to `Nc1nc2ccc(S(N)(=O)=O)cc2s1` [2-amino-1,3-benzothiazole-6-sulfonamide], for which the kon amounted to 19600 M⁻¹ s⁻¹ and the dissociation constant Kd (in general, a measure of binding affinity in units of concentration) worked out at 0.383 µM.
The corresponding values for `Cc1ccccc1S(N)(=O)=O` [2-methylbenzene-1-sulfonamide] are 240000 M⁻¹ s⁻¹ and 2.18 µM.
The corresponding values for `NS(=O)(=O)c1ccc2c(c1)OCCO2` [2,3-dihydro-1,4-benzodioxine-6-sulfonamide] are 109000 M⁻¹ s⁻¹ and 0.817 µM.
Consider `Cn1cnc(S(N)(=O)=O)c1` [1-methyl-1H-imidazole-4-sulfonamide], for which the kon is 164000 M⁻¹ s⁻¹ and the affinity, expressed as Kd, was 35.3 µM. The koff – broadly, the first-order rate constant of dissociation – (pH 7.4, read-out: koff (s-1)) worked out at 4.65 s⁻¹.
With `O=C1NNS(=O)(=O)c2ccccc21` [1,4-dioxo-1,2,3,4-tetrahydro-1,2,3-benzothiadiazin-1-ium-1-olate], the kon turned out to be 1.94e+06 M⁻¹ s⁻¹ and the Kd was determined as 38.9 µM.
